The term viability, T/C denotes the ratio of treated to control. A word on the IC50: it is the concentration that inhibits the measured activity by half.

The text below walks through data of PubChem BioAssay AID1918954 (Molecular Pharmacology Branch, DTP, NCI, 2023).

Where “and” joins values, the source holds several entries; their conditions need not be identical. Equal values may be shown once.

For this experiment, the system named is MDA-MB-468 complex spheroids with HUVEC/MSC, viability. Description: Anticancer human tumor MDA-MB-468 cell line growth inhibition.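 On all read-outs here: spheroids exposed to agents for seven days.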 Conditions: for viability, T/C: stronger effect = lower value; for IC50: curve of compound. The text has this: Multicellular complex tumor spheroid response to LSD1 Inhibitor Iadademstat in combination with a variety of drugs and investigational agents in selected tumor cell lines
The current study was undertaken to assess response to LSD1 inhibitors in combination with standard-of-care drugs and investigational agents in solid tumor complex spheroid models as well as in the K-562 leukemia. Complex spheroids include a stromal component modeled by human endothelial cells (HUVEC) and fibroblasts modeled by human mesenchymal stem cells (MSCs). The concentration ranges selected for each drug and investigational agent were based upon clinically achievable concentrations if the clinical Cmax of the agent was known.
Compounds. The drugs and investigational agents used in this study are listed on Table 1. All of the agents used, including staurosporine (NSC755774) and gemcitabine (NSC613327), were obtained from the Developmental Therapeutics Program, NCI. FDA-approved anticancer drugs are available from the NCI at http://dtp.nci.nih.gov/branches/dscb/oncology_drugset_explanation.html. Drugs and investigational agents were >95% pure by proton nuclear magnetic resonance (NMR) and liquid chromatography/mass spectrometry (LC/MS). Stock solutions were prepared at 400x in DMSO, stored at -70 degrees C, and diluted in fresh medium prior to their use. The final concentration of DMSO in cell culture wells never exceeded 0.25% (v/v). The FDA-approved anticancer drug set is available from the Developmental Therapeutics Program at https://dtp.cancer.gov/organization/dscb/obtaining/available_plates.htm. All drugs and investigational agents were tested over a range starting from a high concentration at or near the clinical Cmax and decreasing in half-log increments. If the clinical Cmax for an agent had not been determined, the highest concentration tested was 10 microM.
Cell Lines. The patient-derived cancer cell (PDC) lines: 292921-168-R-J2-PDC, K24384-001-R-PDC, and 521955-158-R2-J5-PDC pancreatic carcinomas, 556581-035-R-J1 ovarian carcinoma, 324938-238-R-J1-PDC, 855422-203-R-J1-PDC and 883617-216-R-J1-PDC urothelial bladder carcinomas, 743489-274-T-PDC renal cell carcinoma, 138582-R-J1 Merkel cell tumor, K60290-347-R-J1 and K57222-313-R-J1-PDC glioblastomas, 653999-131-R-J2-PDC, LG0703-F948-PDC, and 349418-098-R-PDC non-small cell lung carcinomas, 885512-296-R-J2-PDC, 171881-019-R-J1-PDC breast carcinomas and 186277-243-T-J2-PDC and 233499-124-R-J2-PDC colon carcinomas were obtained from the NCI Patient-Derived Models Repository (PDMR, https://pdmr.cancer.gov). The established cell lines NCI/ADR-RES (RRID:CVCL_14520 and OVCAR-5 (RRID:CVCL_1628) ovarian carcinomas, 786-O (RRID:CVCL_1051) and A498 (RRID:CVCL_A498) renal cell carcinoma, NCI-H211 (ATCC, cat. CRL-5824; RRID:CVCL_1529), NCI-H196 (ATCC, cat. CRL-5823, RRID:CVCL_1509), SW 1271 (ATCC, cat. CRL-2177, RRID:CVCL_1716) and NCI-H1876 (ATCC, cat. CRL-5902, RRID:CVCL_1503) small cell lung carcinomas, MDA-MB-231 (RRID:CVCL_0062) and MDA-MB-468 (RRID:CVCL_0419)breast carcinomas (10-12). Pooled donor human umbilical vein endothelial cells (HUVEC, Lonza, cat. CC-2519) and human mesenchymal stem cells (hMSC, Lonza, cat. PT-2501) were purchased from Lonza (Walkersville, MD).
Cell Culture. All cells were maintained in an incubator at 37 degrees C and 5% CO2 with 95% humidity. The PDC lines were cultured according to standard operating procedures established by the NCI PDMR (https://pdmr.cancer.gov). Briefly all PDCs were thawed and cultured in Matrigel-coated flasks prepared with a working solution of 1X Ham's F-12 nutrient mix, without supplementation (Invitrogen, Waltham, MA, cat. 11765054), 100 U/mL penicillin-streptomycin (Invitrogen, cat. 15140122), and 2.5% Matrigel (Corning Inc., Corning, NY, cat. 354248) for the first three passages. […]

Regarding `CC(C)CC(NC(=O)C(Cc1ccccc1)NC(=O)c1cnccn1)B(O)O` (configuration not stated), the IC50 is 0.684 nM and < 0.316 nM. Also, the viability, T/C (compound 0.00316 µM) is 0.95% and 0.15%. Moreover, for the setting “compound 0.01 µM”, the viability, T/C was 1.2% and 0.15%. The viability, T/C (compound 0.0316 µM) is 1.22% and 0.17%. Moreover, the viability, T/C (compound 0.1 µM) was 1.51% and 0.22%.
Consider `CC(C)CC(NC(=O)CNC(=O)c1cc(Cl)ccc1Cl)B1OC(=O)CC(CC(=O)O)(C(=O)O)O1` (configuration not stated), for which the IC50 is 3.43 nM and 2.67 nM. The viability, T/C (compound 0.000316 µM) was 109%. Further, the viability, T/C (compound 0.001 µM) was 90.5% and 96.4%. In addition, for the setting “compound 0.00316 µM”, the viability, T/C was 55.3% and 42.1%. Further, the viability, T/C (compound 0.01 µM) was 11.1% and 5.88%. Further, the viability, T/C (compound 0.0316 µM) was 1.51% and 0.31%. Besides, the viability, T/C (compound 0.1 µM) was 1.72% and 0.22%.
Consider `CC1(C)CCC(CN2CCN(c3ccc(C(=O)NS(=O)(=O)c4ccc(NCC5CCOCC5)c([N+](=O)[O-])c4)c(Oc4cnc5[nH]ccc5c4)c3)CC2)=C(c2ccc(Cl)cc2)C1`, for which the IC50 is 6600 nM and 1880 nM. Besides, the viability, T/C (compound 0.0316 µM) is 93.2% and 90.6%. The viability, T/C (compound 0.1 µM) is 102% and 95.5%. Moreover, the viability, T/C (compound 0.316 µM) is 101% and 85.6%. In addition, where the note is “compound 1 µM”, the viability, T/C is 91.7% and 74%. Also, the viability, T/C (compound 3.16 µM) was 70.5% and 30.9%.
Take `CC1COCCN1c1cc(-c2ccnn2C)c2ccnc(-c3ccn[nH]3)c2n1` (configuration not stated): the IC50 is 13.7 nM and < 3.16 nM. The viability, T/C (compound 0.00316 µM) is 81.2% and 38.9%. In addition, the viability, T/C (compound 0.01 µM) is 54.9% and 37.5%. In addition, the viability, T/C (compound 0.0316 µM) was 35.7% and 19.3%. The viability, T/C (compound 0.1 µM) is 27% and 8.03%. Also, where the note is “compound 0.316 µM”, the viability, T/C was 15.8% and 5.94%. Also, where the note is “compound 1 µM”, the viability, T/C was 12.2% and 2.35%.
For the compound `CC1COCCN1c1cc(C2(S(C)(=N)=O)CC2)nc(-c2ccnc3[nH]ccc23)n1` (configuration not stated), the IC50 is 282 nM and 835 nM. The viability, T/C (compound 0.0316 µM) is 101% and 78.9%. In addition, the viability, T/C (compound 0.1 µM) is 67.4% and 88.1%. Also, under “compound 0.316 µM”, the viability, T/C was 50.6% and 66.4%. Where the note is “compound 1 µM”, the viability, T/C is 30.4% and 46%. Under “compound 3.16 µM”, the viability, T/C is 21.9% and 24.2%. The viability, T/C (compound 10 µM) was 11.6% and 9.82%.
As for `CCN(c1cc(-c2ccc(CN3CCOCC3)cc2)cc(C(=O)NCc2c(C)cc(C)[nH]c2=O)c1C)C1CCOCC1`, the IC50 is > 3000 nM and 441 nM. Also, for the setting “compound 0.00949 µM”, the viability, T/C is 81.6% and 96.5%. Besides, the viability, T/C (compound 0.03 µM) was 100% and 76.8%. For the setting “compound 0.0949 µM”, the viability, T/C was 118% and 74.4%. The viability, T/C (compound 0.3 µM) is 92.3% and 50.2%. The viability, T/C (compound 0.949 µM) was 92.2% and 44%. Further, the viability, T/C (compound 3 µM) is 75.7% and 24.5%.
Take `CC[C@@]1(O)C(=O)OCc2c1cc1n(c2=O)Cc2cc3c(CN(C)C)c(O)ccc3nc2-1`: the IC50 is 0.662 nM and 1.14 nM. The viability, T/C (compound 0.000316 µM) was 69% and 95.9%. The viability, T/C (compound 0.001 µM) was 39.5% and 54.5%. Moreover, the viability, T/C (compound 0.00316 µM) is 16.9% and 14%. The viability, T/C (compound 0.01 µM) is 10.4% and 12.7%. Also, the viability, T/C (compound 0.0316 µM) was 7.18% and 6.23%. The viability, T/C (compound 0.1 µM) is 7.59% and 4.68%.
On to `CCc1c2c(nc3ccc(O)cc13)-c1cc3c(c(=O)n1C2)COC(=O)[C@]3(O)CC`, for which the IC50 was below 0.949 nM. In addition, the viability, T/C (compound 0.000949 µM) was 7.07% and 5.35%. Moreover, the viability, T/C (compound 0.003 µM) was 7.03% and 4.74%. For the same compound, the viability, T/C (compound 0.00949 µM) was 5.45% and 2.28%. Further, the viability, T/C (compound 0.03 µM) was 2.45% and 0.63%. Further, the viability, T/C (compound 0.0949 µM) is 2.17% and 0.53%. For the same compound, for the setting “compound 0.3 µM”, the viability, T/C was 2.73% and 0.59%.
For `COc1cc(C2c3cc4c(cc3C(OC3OC5COC(C)OC5C(O)C3O)C3COC(=O)C23)OCO4)cc(OC)c1O` (configuration not stated), the IC50 was 87.8 nM and 52.4 nM. Also, the viability, T/C (compound 0.00949 µM) is 79% and 92.3%. The viability, T/C (compound 0.03 µM) was 76.9% and 70.8%. Moreover, for the setting “compound 0.0949 µM”, the viability, T/C is 48.1% and 27.1%. The viability, T/C (compound 0.3 µM) was 15.1% and 15%. Also, under “compound 0.949 µM”, the viability, T/C was 14.4% and 10%. Under “compound 3 µM”, the viability, T/C is 10.4% and 4.22%.
For `COc1cc(Nc2ncc3c(n2)-c2ccc(Cl)cc2C(c2c(F)cccc2OC)=NC3)ccc1C(=O)O`, the IC50 is 5.54 nM and < 3.16 nM. For the same compound, the viability, T/C (compound 0.00316 µM) was 69.6% and 17.2%. Moreover, the viability, T/C (compound 0.01 µM) is 28.3% and 7.92%. The viability, T/C (compound 0.0316 µM) was 17.4% and 5.89%. In addition, the viability, T/C (compound 0.1 µM) is 8.67% and 6.08%. For the same compound, the viability, T/C (compound 0.316 µM) is 7.8% and 4.66%. Also, under “compound 1 µM”, the viability, T/C is 7.38% and 3%.
